Assay results published in ChEMBL document CHEMBL5257063, “Dendrillic Acids A and B: Nitrogenous, Rearranged Spongian Nor-Diterpenes from a Dendrilla sp. Marine Sponge” (J Nat Prod, 2023).
Converted amounts (≈) assume the structure as drawn.

What was measured:
Bacillus subtilis = assay: Antibacterial activity against Bacillus subtilis ATCC 6633 measured after 48 hrs by resazurin reagent based assay; format: functional
Staphylococcus aureus = assay: Antibacterial activity against Staphylococcus aureus ATCC 25923 measured after 48 hrs by resazurin reagent based assay; format: functional
Candida albicans = assay: Antifungal activity against Candida albicans ATCC 10231 measured after 48 hrs by bromocresol green reagent based assay; format: functional
Saccharomyces cerevisiae = assay: Antifungal activity against Saccharomyces cerevisiae ATCC 9763 measured after 48 hrs by bromocresol green reagent based assay; format: functional
[1] = Cytotoxicity against mouse NS-1 cells incubated for 96 hrs by resazurin dye based assay; format: functional
[2] = Cytotoxicity against human NFF cells incubated for 96 hrs by resazurin dye based assay; format: toxicity, cell-based; details: read-out: MIC
Tritrichomonas foetus = assay: Anti-protozoal activity against Tritrichomonas foetus KV-1 measured after 72 hrs under anaerobic conditions; format: functional
Giardia intestinalis = assay: Antiparasitic activity against Giardia duodenalis WB-1B 713 assessed as parasite growth inhibition measured after 96 hrs under anaerobic conditions; format: functional

SMILES | MIC (Bacillus subtilis) [µg/mL] | MIC (Staphylococcus aureus) [µg/mL] | MIC (Candida albicans) [µg/mL] | MIC (Saccharomyces cerevisiae) [µg/mL] | MIC [1] [µg/mL] | MCC at 96 h [2] [µg/mL] | MIC (Tritrichomonas foetus) [µg/mL] | MIC (Giardia intestinalis) [µg/mL]
C[C@@H]1c2c([C@@]3(C)CCCC(C)(C)C3)ccc(C(=O)O)c2C(=O)N1CC(=O)O | > 100 | > 100 | > 200 | > 200 | > 100 | > 100 | > 100 | 100 (≈ 268 µM)
CN(CC[C@H](N)CC(=O)N[C@H]1C=C[C@H](n2ccc(N)nc2=O)O[C@@H]1C(=O)O)C(=N)N.Cl | – | – | > 200 | 3.1 | – | – | – | –
C[C@H]1c2c([C@@]3(C)CCCC(C)(C)C3)ccc(C(=O)O)c2C(=O)N1CC(=O)O | > 100 | > 100 | > 200 | > 200 | > 100 | > 100 | > 100 | 50 (≈ 134 µM)
Cc1ncc([N+](=O)[O-])n1CCO [METRONIDAZOLE] | – | – | – | – | – | – | 0.2 (≈ 1.17 µM) | 0.3 (≈ 1.75 µM)
CSC[S@@+]([O-])CC(CO)NC(=O)/C=C/c1c(C)[nH]c(=O)[nH]c1=O (some centres undefined) [SPARSOMYCIN] | – | – | – | – | 0.6 (≈ 1.66 µM) | 0.6 | – | –
CN(C)[C@@H]1C(O)=C(C(N)=O)C(=O)[C@@]2(O)C(O)=C3C(=O)c4c(O)cccc4[C@@](C)(O)[C@H]3C[C@@H]12 [TETRACYCLINE] | 6.3 (≈ 14.2 µM) | 12.5 (≈ 28.1 µM) | – | – | – | – | – | –
